Results on four compounds are retold here after patent US9708314B2, “Heterocyclic amide compound” (NISSAN CHEMICAL INDUSTRIES, LTD., priority 2013, dated 2017).

Structures are written as SMILES.

Format in all cases: in vivo
Series [1] relates to Echinochloa oryzacola Vasing. Description: Test Example 2: herbicidal activity, application during weed generation in submerged conditions. Particulars: Eighteenth Table; application herbicide amount 320 g/ha. The source says:
(§1) 5 Herbicidal ratio of 90% or more (almost completely withered) 4 Herbicidal ratio of 70% or more and less than 90% 3 Herbicidal ratio of 40% or more and less than 70% 2 Herbicidal ratio of 20% or more and less than 40% 1 Herbicidal ratio of 5% or more and less than 20% 0 Herbicidal ratio of 5% or less (almost no effect) [Test Example 2] Herbicidal Activity Test by Application During Weed Generation in Submerged Conditions After alluvial soil was placed into 1/10000 are of Wagner pot, water was poured and mixed to form a submerged condition having a water depth of 4 cm. Seeds of Echinochloa oryzacola Vasing., Scirpus juncoides, and Monochoria vaginalis were sowed in a mixed manner in the above pot and the pot was placed in the greenhouse of 25° C. to 30° C. to grow the plants. When Echinochloa oryzacola Vasing., Scirpus juncoides, and Monochoria vaginalis were grown to one leaf stage to two leaf stage, the emulsion agent containing the compound of the present invention prepared in accordance with Formulation Example 2 was diluted with water so as to be a predetermined herbicide amount and the diluted compound was applied to the surface of the water. Three weeks after the herbicide application, effects on each plant were investigated in accordance with the criteria of Test Example 1. A: Echinochloa oryzicola Vasing., B: Scirpus juncoides, C: Monochoria vaginalis, D: Leptochloa chinensis, E: Cyperus difformis, F: Digitaria ciliaris, G: Setaria viridis, H: Echinochloa crus-galli var. crus-galli, I: Avena fatua, J: Alopecurus myosuroides, K: Lolium multiflorum Lam., L: Apera spica-venti., M: Abutilon theophrasti, N: Amaranthus retroflexus, O: Chenopodium album, P: Stellaria media, Q: Galium spurium, R: Veronica persica, a: transplanted Oryza sativa, b: directly sowed Oryza sativa, c: Zea mays, d: Glycine max, e: Triticum aestivum, f: Beta vulgaris ssp. vulgaris, and g: Brassica campestris L. The application herbicide amount (g/ha) means an amount that a concentration is adjusted so that, when an application amount is converted into per hectare (1 ha), the herbicide is applied by the number of grams (g) of the described value.

The next series deals with Monochoria vaginalis. The series is described as above. Particulars: Eighteenth Table; application herbicide amount 320 g/ha.
Excerpt: as §1

Another series has as its system Scirpus juncoides. Described as above. Particulars: Eighteenth Table; application herbicide amount 320 g/ha.
Excerpt: as §1

The subject of a further series is Avena fatua. Description: Test Example 4: herbicidal effect by application to foliage (diluvial soil, plastic box). Particulars: for I: Application herbicide amount 320 g/ha. In short, it runs like this:
(§2)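 Scores run from 0 (herbicidal ratio ≤5%) to 5 (≥90%, almost fully withered) and were assessed three weeks after foliar spraying. Seedlings had been raised for 14 days at 25-30° C in sterilized diluvial soil before treatment, with the emulsion diluted in water to the stated g/ha dose.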

Series [2] deals with Echinochloa crus-galli var. crus-galli. Described as above. Particulars: for H: Application herbicide amount 320 g/ha. In outline: as §2
The next series relates to Digitaria ciliaris. The series is described as above. Particulars: for F: Application herbicide amount 320 g/ha. In outline:
as §2

A further series has as its system Galium spurium. The description is as above. Particulars: for Q: Application herbicide amount 320 g/ha. In short, it runs like this:
as §2

Another series concerns Abutilon theophrasti. Described as above. Particulars: for M: Application herbicide amount 320 g/ha. In outline:
as §2

A further series has as its system Lolium multiflorum Lam. The series is described as above. Particulars: for K: Application herbicide amount 320 g/ha. In short, it runs like this: as §2
For the next series, the system named is Chenopodium album. The description is as above. Particulars: for O: Application herbicide amount 320 g/ha. In short, it runs like this: as §2
In the next series the test system is Setaria viridis. The description is as above. Particulars: for G: Application herbicide amount 320 g/ha. In short, it runs like this:
as §2

The next series concerns Alopecurus myosuroides. Described as above. Particulars: for J: Application herbicide amount 320 g/ha. In outline: as §2
A further series relates to Apera spica-venti. The series is described as above. Particulars: for L: Application herbicide amount 320 g/ha. In outline: as §2
The subject of the next series is Zea mays. Kind of series: Test Example 4: effect on crop by application to foliage (diluvial soil, plastic box). Particulars: for b: Application herbicide amount 320 g/ha, effect on crop. In outline:
as §2

The next series concerns Glycine max. Described as above. Particulars: for c: Application herbicide amount 320 g/ha, effect on crop. In short, it runs like this:
as §2

The subject of series [3] is Beta vulgaris ssp. vulgaris. The description is as above. Particulars: for f: Application herbicide amount 320 g/ha, effect on crop. In outline: as §2
Series [4] has as its system directly sowed Oryza sativa. The series is described as above. Particulars: for d: Application herbicide amount 320 g/ha, effect on crop. In outline:
as §2

Another series has as its system Brassica campestris L. The series is described as above. Particulars: for g: Application herbicide amount 320 g/ha, effect on crop. In outline: as §2
The next series has as its system Triticum aestivum. The series is described as above. Particulars: for e: Application herbicide amount 320 g/ha, effect on crop. In outline: as §2
[5] abbreviates: application to foliage, application herbicide amount 320 g/ha.

Take `Cc1nnc(NC(=O)c2ccc(C(F)(F)F)n3c(C(C)S(C)(=O)=O)nnc23)o1` (stereo not drawn) [1-080]: the “A (Echinochloa oryzicola Vasing.) herbicidal ratio grade” value in series [1] was 5 (Herbicidal ratio of 90% or more (almost completely withered)). In addition, the “C (Monochoria vaginalis) herbicidal ratio grade” value in the series on Monochoria vaginalis is 4 (Herbicidal ratio of 70% or more and less than 90%). In addition, the “B (Scirpus juncoides) herbicidal ratio grade” value in the series with Scirpus juncoides was 3 (Herbicidal ratio of 40% or more and less than 70%). The I in the series on Avena fatua is 4 (Herbicidal ratio of 70% or more and less than 90%). Besides, in series [2], the H was 5 (Herbicidal ratio of 90% or more (almost completely withered)). Besides, the F in the series with Digitaria ciliaris is given as 5 (Herbicidal ratio of 90% or more (almost completely withered)). Further, in the series with Galium spurium, the Q is 5 (Herbicidal ratio of 90% or more (almost completely withered)). In addition, the M in the series on Abutilon theophrasti is on record as 5 (Herbicidal ratio of 90% or more (almost completely withered)). Further, in the series with Lolium multiflorum Lam., the K is 4 (Herbicidal ratio of 70% or more and less than 90%). Also, the O with Chenopodium album is recorded as 5 (Herbicidal ratio of 90% or more (almost completely withered)). Besides, in the series on Setaria viridis, the G is 5 (Herbicidal ratio of 90% or more (almost completely withered)). The J in the series with Alopecurus myosuroides is recorded as 5 (Herbicidal ratio of 90% or more (almost completely withered)). Moreover, the L in the series on Apera spica-venti. was 5 (Herbicidal ratio of 90% or more (almost completely withered)). Also, the b with Zea mays was 4 (Herbicidal ratio of 70% or more and less than 90%). The c in the series with Glycine max was 4 (Herbicidal ratio of 70% or more and less than 90%). In addition, in series [3], the f is given as 5 (Herbicidal ratio of 90% or more (almost completely withered)). In addition, the d in series [4] was 5 (Herbicidal ratio of 90% or more (almost completely withered)). In addition, in the series with Brassica campestris L., the g is 5 (Herbicidal ratio of 90% or more (almost completely withered)). For the same compound, in the series on Triticum aestivum, the e is listed as 5 (Herbicidal ratio of 90% or more (almost completely withered)).

`Cc1nnc(NC(=O)c2ccc(C(F)(F)F)n3c(C)nnc23)o1` [1-002]: in series [1], the “A (Echinochloa oryzicola Vasing.) herbicidal ratio grade” value was 3 (Herbicidal ratio of 40% or more and less than 70%). Besides, the “C (Monochoria vaginalis) herbicidal ratio grade” value in the series on Monochoria vaginalis was 0 (Herbicidal ratio of 5% or less (almost no effect)). In addition, the “B (Scirpus juncoides) herbicidal ratio grade” value in the series on Scirpus juncoides is recorded as 0 (Herbicidal ratio of 5% or less (almost no effect)). The “I (Avena fatua) herbicidal effect” value with Avena fatua (setting [5]) was 3 (Herbicidal ratio of 40% or more and less than 70%). The “H (Echinochloa crus-galli var. crus-galli) herbicidal effect” value in [2] (setting [5]) was 5 (Herbicidal ratio of 90% or more (almost completely withered)). In addition, the “F (Digitaria ciliaris) herbicidal effect” value with Digitaria ciliaris (setting [5]) was 4 (Herbicidal ratio of 70% or more and less than 90%). Moreover, the “Q (Galium spurium) herbicidal effect” value with Galium spurium (setting [5]) is 4 (Herbicidal ratio of 70% or more and less than 90%). In addition, the “M (Abutilon theophrasti) herbicidal effect” value in the series with Abutilon theophrasti (setting [5]) is 3 (Herbicidal ratio of 40% or more and less than 70%). Besides, the “K (Lolium multiflorum Lam.) herbicidal effect” value with Lolium multiflorum Lam. (setting [5]) was 2 (Herbicidal ratio of 20% or more and less than 40%). The “O (Chenopodium album) herbicidal effect” value in the series with Chenopodium album (setting [5]) was 5 (Herbicidal ratio of 90% or more (almost completely withered)). Further, the “G (Setaria viridis) herbicidal effect” value with Setaria viridis (setting [5]) is 2 (Herbicidal ratio of 20% or more and less than 40%). In the series on Alopecurus myosuroides (setting [5]), the “J (Alopecurus myosuroides) herbicidal effect” value was 1 (Herbicidal ratio of 5% or more and less than 20%). Further, the “L (Apera spica-venti.) herbicidal effect” value in the series on Apera spica-venti. (setting [5]) is 1 (Herbicidal ratio of 5% or more and less than 20%). In the series on Zea mays (setting [5]), the “b (Zea mays) effect on crop” value is recorded as 0 (Herbicidal ratio of 5% or less (almost no effect)). Besides, the “c (Glycine max) effect on crop” value in the series on Glycine max (setting [5]) was 0 (Herbicidal ratio of 5% or less (almost no effect)). In addition, in [3] (setting [5]), the “f (Beta vulgaris ssp. vulgaris) effect on crop” value is 5 (Herbicidal ratio of 90% or more (almost completely withered)). The “d (directly sowed Oryza sativa) effect on crop” value in [4] (setting [5]) is 3 (Herbicidal ratio of 40% or more and less than 70%). Also, the “g (Brassica campestris L.) effect on crop” value with Brassica campestris L. (setting [5]) was 4 (Herbicidal ratio of 70% or more and less than 90%). The “e (Triticum aestivum) effect on crop” value with Triticum aestivum (setting [5]) was 1 (Herbicidal ratio of 5% or more and less than 20%).

Take `Cc1nnc(NC(=O)c2ccc(C(F)(F)F)n3c(C(C)[S+](C)[O-])nnc23)o1` (stereo not drawn) [1-079]: the “A (Echinochloa oryzicola Vasing.) herbicidal ratio grade” value in series [1] was 4 (Herbicidal ratio of 70% or more and less than 90%). For the same compound, the “C (Monochoria vaginalis) herbicidal ratio grade” value in the series on Monochoria vaginalis is 4 (Herbicidal ratio of 70% or more and less than 90%). Moreover, the “B (Scirpus juncoides) herbicidal ratio grade” value in the series on Scirpus juncoides was 3 (Herbicidal ratio of 40% or more and less than 70%). Moreover, the I with Avena fatua is 4 (Herbicidal ratio of 70% or more and less than 90%). Also, the H in series [2] is 5 (Herbicidal ratio of 90% or more (almost completely withered)). The F in the series on Digitaria ciliaris is reported as 5 (Herbicidal ratio of 90% or more (almost completely withered)). In addition, in the series with Galium spurium, the Q is 4 (Herbicidal ratio of 70% or more and less than 90%). In addition, in the series with Abutilon theophrasti, the M is 5 (Herbicidal ratio of 90% or more (almost completely withered)). In addition, the K with Lolium multiflorum Lam. is 3 (Herbicidal ratio of 40% or more and less than 70%). The O with Chenopodium album is 5 (Herbicidal ratio of 90% or more (almost completely withered)). For the same compound, in the series on Setaria viridis, the G is recorded as 5 (Herbicidal ratio of 90% or more (almost completely withered)). Besides, the J in the series on Alopecurus myosuroides is 2 (Herbicidal ratio of 20% or more and less than 40%). Also, the b in the series on Zea mays is 4 (Herbicidal ratio of 70% or more and less than 90%). Further, the c in the series on Glycine max is 1 (Herbicidal ratio of 5% or more and less than 20%). The f in [3] was 5 (Herbicidal ratio of 90% or more (almost completely withered)). Besides, the d in series [4] is given as 5 (Herbicidal ratio of 90% or more (almost completely withered)). Also, in the series on Brassica campestris L., the g is reported as 5 (Herbicidal ratio of 90% or more (almost completely withered)). Also, the e in the series with Triticum aestivum is 4 (Herbicidal ratio of 70% or more and less than 90%).

On to `COCC[S+]([O-])c1nnc2c(C(=O)Nc3nnc(C)o3)ccc(C(F)(F)F)n12` (stereo not drawn) [1-073], for which the “A (Echinochloa oryzicola Vasing.) herbicidal ratio grade” value in series [1] is 2 (Herbicidal ratio of 20% or more and less than 40%). In the series on Monochoria vaginalis, the “C (Monochoria vaginalis) herbicidal ratio grade” value was 1 (Herbicidal ratio of 5% or more and less than 20%). The “B (Scirpus juncoides) herbicidal ratio grade” value with Scirpus juncoides is 2 (Herbicidal ratio of 20% or more and less than 40%). The I with Avena fatua is 3 (Herbicidal ratio of 40% or more and less than 70%). In [2], the H was 5 (Herbicidal ratio of 90% or more (almost completely withered)). Besides, in the series on Digitaria ciliaris, the F was 5 (Herbicidal ratio of 90% or more (almost completely withered)). Also, the Q in the series with Galium spurium is 2 (Herbicidal ratio of 20% or more and less than 40%). Further, the M with Abutilon theophrasti is 5 (Herbicidal ratio of 90% or more (almost completely withered)). Besides, the K in the series on Lolium multiflorum Lam. was 3 (Herbicidal ratio of 40% or more and less than 70%). Moreover, the O with Chenopodium album was 5 (Herbicidal ratio of 90% or more (almost completely withered)). Further, in the series with Setaria viridis, the G was 5 (Herbicidal ratio of 90% or more (almost completely withered)). Also, in the series with Alopecurus myosuroides, the J was 2 (Herbicidal ratio of 20% or more and less than 40%). In the series with Apera spica-venti., the L was 3 (Herbicidal ratio of 40% or more and less than 70%). For the same compound, the b in the series on Zea mays is given as 5 (Herbicidal ratio of 90% or more (almost completely withered)). Also, in the series with Glycine max, the c was 0 (Herbicidal ratio of 5% or less (almost no effect)). Also, the f in series [3] is on record as 5 (Herbicidal ratio of 90% or more (almost completely withered)). Moreover, the d in series [4] was 4 (Herbicidal ratio of 70% or more and less than 90%). In the series on Brassica campestris L., the g is 3 (Herbicidal ratio of 40% or more and less than 70%). Moreover, in the series on Triticum aestivum, the e is 3 (Herbicidal ratio of 40% or more and less than 70%).
